# pEC50, pIC50: −log10 of the molar value.
# Key:
# Mus musculus [1] = species: Mus musculus; experiment: Antihyperglycemic activity in sucrose loaded mouse model assessed as decrease in blood glucose level; assay type: functional; design: scale not given: the % may be the effect or the level left
# Pseudomonas aeruginosa [2] = experiment: Antibacterial activity against Pseudomonas aeruginosa; assay type: functional
# Salmonella typhimurium = experiment: Antibacterial activity against Salmonella typhimurium; assay type: functional, Salmonella enterica subsp. enterica serovar Typhimurium; settings: Salmonella enterica
# Bacillus subtilis = experiment: Antibacterial activity against Bacillus subtilis; assay type: functional
# Staphylococcus aureus [3] = experiment: Antibacterial activity against Staphylococcus aureus; assay type: functional
# Candida albicans = experiment: Antifungal activity against Candida albicans; assay type: functional
# Aspergillus niger [4] = experiment: Antifungal activity against Aspergillus niger; assay type: functional
# Escherichia coli [5] = experiment: Antibacterial activity against Escherichia coli; assay type: functional
# [6] = biological target: Human immunodeficiency virus type 1 reverse transcriptase (Human immunodeficiency virus 1, UniProt Q72547); experiment: Inhibition of HIV-1 reverse transcriptase
# [7] = biological target: Human immunodeficiency virus type 1 reverse transcriptase (Human immunodeficiency virus 1) (UniProt Q72547); experiment: Inhibition of HIV-1 reverse transcriptase relative to control; settings: concentration not given here
# Klebsiella pneumoniae = experiment: Antibacterial activity against Klebsiella pneumoniae; assay type: functional
# Mus musculus [8] = species: Mus musculus; experiment: Hypolipidemic activity in KKAY mouse assessed as reduction in triglyceride level; assay type: functional
# Mus musculus [9] = species: Mus musculus; experiment: Hypoglycemic activity in KKAY mouse assessed as reduction in blood glucose level; assay type: functional
# [10] = Inhibition of bovine lens ALR2; assay type: tissue-based, Bos taurus
# Mus musculus [11] = experiment: Hypoglycemic activity in db/db mouse assessed as reduction in blood glucose level at 100 mg/kg/day; assay type: functional
# Nakaseomyces glabratus = experiment: Antifungal activity against Candida glabrata; assay type: functional
# Candida parapsilosis = experiment: Antifungal activity against Candida parapsilosis; assay type: functional; settings: Lodderomyces parapsilosis
# Pichia kudriavzevii = experiment: Antifungal activity against Candida krusei; assay type: functional
# RAW264.7 = experiment: Inhibition of LPS-induced NO production in mouse RAW264.7 cells; assay type: functional
# [12] = biological target: Peroxisome proliferator-activated receptor gamma (Homo sapiens) (UniProt P37231); experiment: Transactivation of PPARgamma (unknown origin) expressed in HEK293 cells at 10 uM after 24 hrs by luminometer assay; assay type: cell-based; settings: filed as activator
# Rattus norvegicus [13] = species: Rattus norvegicus; experiment: Antidiabetic activity in Wistar rat assessed as increase in glucose uptake in absence of insulin after 45 mins; assay type: functional; settings: 0.75 h
# Rattus norvegicus [14] = species: Rattus norvegicus; experiment: Antidiabetic activity in Wistar rat assessed as increase in glucose uptake in presence of insulin after 45 mins; assay type: functional; settings: 0.75 h
# Rattus norvegicus [15] = species: Rattus norvegicus; experiment: Hypolipidemic activity in alloxan induced diabetic rat model assessed as increase in HDL/LDL ratio; assay type: functional
# Rattus norvegicus [16] = species: Rattus norvegicus; experiment: Hypolipidemic activity in alloxan induced diabetic rat model assessed as increase in HDL; assay type: functional
# Mus musculus [17] = experiment: Hypoglycemic activity in db/db mouse assessed as reduction in blood glucose level at 10 mg/kg; assay type: functional; design: scale not given: the % may be the effect or the level left
# Mus musculus [18] = experiment: Hypolipidemic activity in db/db mouse assessed as reduction in triglyceride level at 10 mg/kg; assay type: functional; design: scale not given: the % may be the effect or the level left
# Escherichia coli [19] = experiment: Antibacterial activity against Escherichia coli ATCC 25922; assay type: functional
# Aspergillus niger [20] = experiment: […] activity against Aspergillus niger ATCC-9029; assay type: functional
# Aspergillus fumigatus = experiment: […] activity against Aspergillus fumigatus ATCC-46645; assay type: functional
# Staphylococcus aureus [21] = experiment: Antibacterial activity against Staphylococcus aureus ATCC 9144; assay type: functional
# Pseudomonas aeruginosa [22] = experiment: Antibacterial activity against Pseudomonas aeruginosa […]; assay type: functional
# [23] = system: Staphylococcus epidermidis; experiment: Antibacterial activity against Staphylococcus epidermidis ATCC-155; assay type: functional
# [24] = biological target: Peroxisome proliferator-activated receptor gamma (Homo sapiens, UniProt P37231); experiment: Agonist activity at human PPARgamma transfected in HEK293 cells assessed increase in luciferase activity incubated for 24 hrs; assay type: cell-based
# Mus musculus [25] = experiment: Hypolipidemic activity in C57BL/6J db/db mouse assessed as reduction in triglyceride level at 200 mg/kg; assay type: functional; design: scale not given: the % may be the effect or the level left
# Mus musculus [26] = experiment: Hypoglycemic activity in C57BL/6J db/db mouse assessed as reduction in blood glucose level at 50 mg/kg after 3 days; assay type: functional; design: scale not given: the % may be the effect or the level left; settings: time 3 day
# [27] = biological target: Peroxisome proliferator-activated receptor gamma (Homo sapiens) (UniProt P37231); experiment: Agonist activity at PPARgamma (unknown origin) assessed as fold increase at 10 uM by luciferase reporter gene assay; settings: filed as agonist
# [28] = biological target: Hexokinase-4 (Homo sapiens) (UniProt P35557); experiment: Agonist activity at glucokinase (unknown origin) assessed as fold increase at 10 uM by luciferase reporter gene assay; settings: filed as agonist
# [29] = biological target: Xanthine dehydrogenase/oxidase (Homo sapiens, UniProt P47989); experiment: Inhibition of human milk xanthine oxidase relative to control
# [30] = Inhibition of bacterial peptide deformylase; design: species or system Bacteria
# Mus musculus [31] = experiment: Hypolipidemic activity in db/db mouse assessed as reduction in triglyceride level at 30 mg/kg/day, po administered for 6 days; assay type: functional; design: scale not given: the % may be the effect or the level left; settings: time 6 day
# Mus musculus [32] = experiment: Hypoglycemic activity in db/db mouse assessed as reduction in blood glucose level at 30 mg/kg/day, po administered for 6 days; assay type: functional; design: scale not given: the % may be the effect or the level left; settings: time 6 day
# Rattus norvegicus [33] = species: Rattus norvegicus; experiment: Antidiabetic activity in Wistar rat assessed as reduction in blood glucose level after 120 mins; assay type: functional; settings: 2 h
# [34] = Bacillus subtilis, read-out: MIC
structure (smiles),measurement,setting,value
CN(C)C(=N)NC(=N)N [METFORMIN],Activity,Mus musculus [1],-34.1%
O=C(O)c1cn(C2CC2)c2cc(N3CCNCC3)c(F)cc2c1=O [CIPROFLOXACIN],MIC,Pseudomonas aeruginosa [2],0.78 mg/L
same,MIC,Salmonella typhimurium,0.78 mg/L
same,MIC,Bacillus subtilis; [34],0.78 mg/L
same,MIC,Staphylococcus aureus [3],0.78 mg/L
Cc1ccc(C)c(/C=C2\SC(=O)N(CCC(=O)Nc3ccccc3O)C2=O)c1,MIC,Candida albicans,12.5 mg/L
same,MIC,Aspergillus niger [4],25 mg/L
same,MIC,Pseudomonas aeruginosa [2],6.25 mg/L
same,MIC,Escherichia coli [5],6.25 mg/L
same,MIC,Salmonella typhimurium,6.25 mg/L
same,pIC50,[6],5.88
same,inhibition,[7],73%
same,MIC,Bacillus subtilis; [34],6.25 mg/L
same,MIC,Klebsiella pneumoniae,6.25 mg/L
CC1(C)S[C@@H]2[C@H](NC(=O)[C@H](N)c3ccccc3)C(=O)N2[C@H]1C(=O)O [AMPICILLIN],MIC,Candida albicans,500 mg/L
same,MIC,Escherichia coli [5],100 mg/L
CN(CCOc1ccc(CC2SC(=O)NC2=O)cc1)c1cc(-c2ccccc2)ccn1 (stereo unspecified),ED25,Mus musculus [8],2.5 mg/kg/day
same,ED25,Mus musculus [9],0.02 mg/kg/day
O=C(O)CN1C(=O)S/C(=C\c2cccc(Oc3ccccc3)c2)C1=O,pIC50,[10],6.89
Cc1c(C)c2c(c(C)c1OCc1ccccc1)C(CN1CCC[C@H]1COc1ccc(/C=C3\SC(=O)NC3=O)cc1)C(C)(C)O2 (stereo partly specified),Activity,Mus musculus [11],8 mM
O=C(CN1C(=O)S/C(=C\c2cccc(-c3cc(=O)c4ccccc4o3)c2)C1=O)c1ccc(F)cc1,MIC,Candida albicans,6.25 mg/L
same,MIC,Nakaseomyces glabratus,6.25 mg/L
same,MIC,Candida parapsilosis,6.25 mg/L
same,MIC,Pichia kudriavzevii,6.25 mg/L
CC(C)c1ccc(N(C)CCOc2ccc(CC3SC(=O)NC3=O)cc2)cc1 (stereo unspecified),inhibition (INH),RAW264.7,51.5%
COc1cc(Br)cc(CC2SC(=O)NC2=O)c1CC(=O)O (stereo unspecified),Activity,[12],65%
O=C(CN1C(=O)S/C(=C\c2ccc(Br)cc2)C1=O)Nc1ccc(C(=O)O)cc1,Activity,Rattus norvegicus [13],34.71 mg/dL
same,Activity,Rattus norvegicus [14],47.65 mg/dL
CN(CCOc1ccc(CC2SC(=O)NC2=O)cc1)Cc1nc(N2CCOCC2)nc(N2CCOCC2)n1 (stereo unspecified),Ratio,Rattus norvegicus [15],4.02
same,Activity,Rattus norvegicus [16],3.16%
COc1cc(/C=C2\SC(=O)NC2=O)cc(OC)c1OC,MIC,Escherichia coli [5],250 mg/L
same,MIC,Staphylococcus aureus [3],200 mg/L
Cc1nn(COc2ccc(CC3SC(=O)NC3=O)cc2)c(=O)c2ccccc12 (stereo unspecified),Activity,Mus musculus [17],72%
same,Activity,Mus musculus [18],68%
COC(=O)CN1C(=O)S/C(=C\c2cn(CC(=O)OC)cn2)C1=O,MIC,Escherichia coli [19],1.6 mg/L
same,MIC,Aspergillus niger [20],7.9 mg/L
same,MIC,Aspergillus fumigatus,1.7 mg/L
same,MIC,Staphylococcus aureus [21],3.8 mg/L
same,MIC,Pseudomonas aeruginosa [22],2.8 mg/L
same,MIC,[23],2.2 mg/L
CCOC(=O)CN1C(=O)SC(Cc2ccc(O)cc2)C1=O (stereo unspecified),Activity,Mus musculus [1],-26.7%
COC(=O)/C(=C\c1cc(OC)cc(OC)c1)c1ccc(Oc2ccc(CC3SC(=O)NC3=O)cc2)cc1 (stereo unspecified),pEC50,[24],6.55
OC(Cn1cncn1)(Cn1cncn1)c1ccc(F)cc1F [FLUCONAZOLE],MIC,Candida albicans,12.5 mg/L
same,MIC,Aspergillus niger [4],12.5 mg/L
O=C1NC(=O)C(Cc2ccc(OCCn3ccc4ccccc43)cc2)S1 (stereo unspecified),Activity,Mus musculus [25],77%
same,Activity,Mus musculus [26],60%
CC(C)OC(=O)c1ccc(NC(=O)Cc2ccc(/C=C3\SC(=O)NC3=O)cc2[N+](=O)[O-])nc1,Activity,[27],48%
same,fold change (FC),[28],2.9
O=C(CN1C(=O)S/C(=C\c2cccc(-c3cc(=O)c4ccccc4o3)c2)C1=O)c1ccc([N+](=O)[O-])cc1,MIC,Candida albicans,6.25 mg/L
same,MIC,Nakaseomyces glabratus,6.25 mg/L
same,MIC,Candida parapsilosis,6.25 mg/L
same,MIC,Pichia kudriavzevii,6.25 mg/L
CCc1ccc(CCOc2ccc(CC3SC(=O)N(CCCCCCC#N)C3=O)cc2)nc1 (stereo unspecified),inhibition (INH),[29],72%
N#Cc1ccccc1-c1ccc(CN2C(=O)S/C(=C\c3c(Cl)cccc3Cl)C2=O)cc1,MIC,Escherichia coli [5],63.6 mg/L
same,pIC50,[30],3.88
same,MIC,Bacillus subtilis,100 mg/L
same,MIC,Bacillus subtilis; [34],63.6 mg/L
CCOC(=O)CN1C(=O)SC(Cc2ccc(OC(C)=O)cc2)C1=O (stereo unspecified),Activity,Mus musculus [1],-26.8%
CN(CCOc1ccc(CC2SC(=O)NC2=O)cc1)c1ccccn1 (stereo unspecified) [ROSIGLITAZONE],Activity,Mus musculus [1],-11.6%
same,Activity,Rattus norvegicus [13],36 mg/dL
same,Activity,Mus musculus [31],41%
same,Activity,Rattus norvegicus [14],50.5 mg/dL
same,ED25,Mus musculus [8],> 30 mg/kg/day
same,ED25,Mus musculus [9],4.1 mg/kg/day
same,Activity,Mus musculus [32],65%
COc1cc(/C=C2\SC(=O)N(CC(=O)O)C2=O)cc(OC)c1OC,Activity,Rattus norvegicus [33],104 mg/dL
CCc1nc(C)cc(=O)n1CCOc1ccc(CC2SC(=O)NC2=O)cc1 (stereo unspecified),Activity,Mus musculus [31],85%
same,Activity,Mus musculus [32],73%
CCc1ccc(CCOc2ccc(CC3SC(=O)NC3=O)cc2)nc1 (stereo unspecified) [PIOGLITAZONE],Activity,Rattus norvegicus [33],115 mg/dL
same,Activity,Mus musculus [17],46.2%
same,Activity,Mus musculus [18],46.9%
